In the kinase profiling compilation of Christmann-Franck et al. (2016):
Several values for one entry are separate records, joined by “and”; a condition that tells them apart may be missing. Equal values may be shown once.

Legend:
Test in all cases: radiometric filter-binding kinase assay, Kinase HotSpot
Details in all cases: compound 0.5 µM; ATP 10 µM
MAPK11 (human) = MAPK11 (human) (UniProt Q15759)
ABL2 (human) = ABL2 (human) (UniProt P42684)
MAP3K14 (human) = MAP3K14 (human) (UniProt Q99558)
MST4 (human) = MST4 (human) (UniProt Q9P289)
EPHA2 (human) = EPHA2 (human) (UniProt P29317)
PDGFRB (human) = PDGFRB (human) (UniProt P09619)
LTK (human) = LTK (human) (UniProt P29376)
AURKB (human) = AURKB (human) (UniProt Q96GD4)
FYN (human) = FYN (human) (UniProt P06241)
PAK1 (human) = PAK1 (human) (UniProt Q13153)
FGFR3 (human) = FGFR3 (human) (UniProt P22607)
PAK3 (human) = PAK3 (human) (UniProt O75914)
FLT3 (human) = FLT3 (human) (UniProt P36888)
CAMK4 (human) = CAMK4 (human) (UniProt Q16566)
IRAK1 (human) = IRAK1 (human) (UniProt P51617)
DAPK3 (human) = DAPK3 (human) (UniProt O43293)
EPHA4 (human) = EPHA4 (human) (UniProt P54764)
CAMK2G (human) = CAMK2G (human) (UniProt Q13555)
MLTK (human) = MLTK (human) (UniProt Q9NYL2)
BMX (human) = BMX (human) (UniProt P51813)
PNCK (human) = PNCK (human) (UniProt Q6P2M8)
EPHB2 (human) = EPHB2 (human) (UniProt P29323)
RPS6KB2 (human) = RPS6KB2 (human) (UniProt Q9UBS0)
AURKA (human) = AURKA (human) (UniProt O14965)
PRKX (human) = PRKX (human) (UniProt P51817)
MINK1 (human) = MINK1 (human) (UniProt Q8N4C8)
EPHA3 (human) = EPHA3 (human) (UniProt P29320)
MARK2 (human) = MARK2 (human) (UniProt Q7KZI7)
BLK (human) = BLK (human) (UniProt P51451)
BRSK1 (human) = BRSK1 (human) (UniProt Q8TDC3)
DSTYK (human) = DSTYK (human) (UniProt Q6XUX3)
CDK1 CCNA2 (human) = CDK1 CCNA2 (human) (UniProt P06493+P20248)
MAP2K1 (human) = MAP2K1 (human) (UniProt Q02750)
ROCK2 (human) = ROCK2 (human) (UniProt O75116)
DYRK3 (human) = DYRK3 (human) (UniProt O43781)
PRKG1 (human) = PRKG1 (human) (UniProt Q13976)
PDGFRA (human) = PDGFRA (human) (UniProt P16234)
TXK (human) = TXK (human) (UniProt P42681)
PRKCE (human) = PRKCE (human) (UniProt Q02156)
GSG2 (human) = GSG2 (human) (UniProt Q8TF76)
CHEK2 (human) = CHEK2 (human) (UniProt O96017)
TEK (human) = TEK (human) (UniProt Q02763)

Sequence of PRKG1 (human) (Q13976 whole entry, looked up): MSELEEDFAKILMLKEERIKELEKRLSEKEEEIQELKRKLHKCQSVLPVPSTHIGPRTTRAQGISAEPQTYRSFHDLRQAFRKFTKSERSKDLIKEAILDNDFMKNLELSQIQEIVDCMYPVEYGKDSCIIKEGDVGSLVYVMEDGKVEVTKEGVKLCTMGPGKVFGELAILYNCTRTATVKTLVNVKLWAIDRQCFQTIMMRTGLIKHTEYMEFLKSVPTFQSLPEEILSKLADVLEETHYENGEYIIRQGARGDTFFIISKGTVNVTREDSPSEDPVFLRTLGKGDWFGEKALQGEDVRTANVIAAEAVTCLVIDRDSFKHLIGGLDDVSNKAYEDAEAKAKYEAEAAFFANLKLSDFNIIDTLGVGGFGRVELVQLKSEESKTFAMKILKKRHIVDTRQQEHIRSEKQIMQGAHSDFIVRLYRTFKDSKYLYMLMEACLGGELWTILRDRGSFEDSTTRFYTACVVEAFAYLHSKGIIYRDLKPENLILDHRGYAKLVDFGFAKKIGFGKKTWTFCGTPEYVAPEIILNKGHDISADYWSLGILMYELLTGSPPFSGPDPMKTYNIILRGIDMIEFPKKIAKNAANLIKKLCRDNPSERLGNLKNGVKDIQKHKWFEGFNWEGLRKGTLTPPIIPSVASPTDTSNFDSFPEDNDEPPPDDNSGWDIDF
Sequence of GSG2 (human) (Q8TF76 whole entry, looked up): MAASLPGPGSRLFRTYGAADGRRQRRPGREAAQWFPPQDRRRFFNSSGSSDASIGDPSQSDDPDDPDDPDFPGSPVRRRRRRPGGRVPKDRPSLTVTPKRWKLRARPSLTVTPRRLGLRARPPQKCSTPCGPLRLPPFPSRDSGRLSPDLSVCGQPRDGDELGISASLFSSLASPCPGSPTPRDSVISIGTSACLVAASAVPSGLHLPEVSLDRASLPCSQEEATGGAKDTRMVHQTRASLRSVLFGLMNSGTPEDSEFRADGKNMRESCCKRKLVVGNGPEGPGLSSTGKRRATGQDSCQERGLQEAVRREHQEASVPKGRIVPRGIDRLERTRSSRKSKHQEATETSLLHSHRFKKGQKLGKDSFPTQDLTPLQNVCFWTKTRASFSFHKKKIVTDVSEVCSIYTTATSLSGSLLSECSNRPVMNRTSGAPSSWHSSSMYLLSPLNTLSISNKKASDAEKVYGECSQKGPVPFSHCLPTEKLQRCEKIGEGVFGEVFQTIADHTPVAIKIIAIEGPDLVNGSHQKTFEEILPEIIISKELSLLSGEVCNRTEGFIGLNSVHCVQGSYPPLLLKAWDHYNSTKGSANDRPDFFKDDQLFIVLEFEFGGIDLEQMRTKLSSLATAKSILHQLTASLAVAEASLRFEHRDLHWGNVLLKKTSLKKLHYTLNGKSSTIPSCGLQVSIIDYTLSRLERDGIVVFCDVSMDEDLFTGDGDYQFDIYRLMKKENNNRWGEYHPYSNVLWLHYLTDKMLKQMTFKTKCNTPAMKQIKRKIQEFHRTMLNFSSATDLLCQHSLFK
Sequence of ABL2 (human) (P42684 whole entry, looked up): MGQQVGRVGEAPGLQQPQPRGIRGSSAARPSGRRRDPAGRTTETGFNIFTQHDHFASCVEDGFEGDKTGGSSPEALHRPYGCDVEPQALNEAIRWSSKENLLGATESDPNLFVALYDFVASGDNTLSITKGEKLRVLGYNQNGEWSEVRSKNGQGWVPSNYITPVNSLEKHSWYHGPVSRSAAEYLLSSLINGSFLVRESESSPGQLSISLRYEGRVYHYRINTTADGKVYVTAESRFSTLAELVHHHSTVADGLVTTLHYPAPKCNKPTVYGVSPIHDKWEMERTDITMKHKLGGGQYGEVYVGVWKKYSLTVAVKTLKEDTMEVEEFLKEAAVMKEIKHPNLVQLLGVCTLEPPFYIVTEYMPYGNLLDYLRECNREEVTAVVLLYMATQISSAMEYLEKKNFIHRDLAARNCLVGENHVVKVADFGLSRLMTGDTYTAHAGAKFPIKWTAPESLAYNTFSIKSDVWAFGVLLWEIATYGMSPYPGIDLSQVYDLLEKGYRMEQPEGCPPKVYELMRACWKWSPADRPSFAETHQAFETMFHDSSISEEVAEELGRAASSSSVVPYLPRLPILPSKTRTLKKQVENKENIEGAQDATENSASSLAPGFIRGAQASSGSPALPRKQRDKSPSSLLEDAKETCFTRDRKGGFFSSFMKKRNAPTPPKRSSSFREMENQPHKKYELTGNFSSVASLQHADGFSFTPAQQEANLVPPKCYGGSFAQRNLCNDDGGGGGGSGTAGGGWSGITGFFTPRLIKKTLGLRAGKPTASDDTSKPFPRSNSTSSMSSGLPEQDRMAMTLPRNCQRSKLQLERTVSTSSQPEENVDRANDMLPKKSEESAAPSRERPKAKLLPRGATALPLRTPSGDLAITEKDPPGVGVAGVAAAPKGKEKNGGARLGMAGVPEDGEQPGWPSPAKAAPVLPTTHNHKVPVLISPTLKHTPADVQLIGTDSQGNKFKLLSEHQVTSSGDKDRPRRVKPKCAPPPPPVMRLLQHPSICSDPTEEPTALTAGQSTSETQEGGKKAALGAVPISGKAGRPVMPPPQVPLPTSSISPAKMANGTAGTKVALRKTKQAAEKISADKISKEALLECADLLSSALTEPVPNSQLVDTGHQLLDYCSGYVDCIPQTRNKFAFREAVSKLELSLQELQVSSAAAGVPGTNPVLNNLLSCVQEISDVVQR
Sequence of PRKX (human) (P51817 whole entry, looked up): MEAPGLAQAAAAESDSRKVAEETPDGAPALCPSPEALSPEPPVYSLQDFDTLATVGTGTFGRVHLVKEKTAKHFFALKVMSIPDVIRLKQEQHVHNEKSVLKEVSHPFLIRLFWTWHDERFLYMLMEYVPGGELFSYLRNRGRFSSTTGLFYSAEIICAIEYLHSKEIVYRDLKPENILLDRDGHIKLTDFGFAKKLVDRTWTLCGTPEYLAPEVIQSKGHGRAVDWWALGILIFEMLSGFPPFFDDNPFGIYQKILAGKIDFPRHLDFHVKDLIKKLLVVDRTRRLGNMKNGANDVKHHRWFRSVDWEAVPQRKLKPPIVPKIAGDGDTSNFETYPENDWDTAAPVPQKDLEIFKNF
Sequence of BLK (human) (P51451 whole entry, looked up): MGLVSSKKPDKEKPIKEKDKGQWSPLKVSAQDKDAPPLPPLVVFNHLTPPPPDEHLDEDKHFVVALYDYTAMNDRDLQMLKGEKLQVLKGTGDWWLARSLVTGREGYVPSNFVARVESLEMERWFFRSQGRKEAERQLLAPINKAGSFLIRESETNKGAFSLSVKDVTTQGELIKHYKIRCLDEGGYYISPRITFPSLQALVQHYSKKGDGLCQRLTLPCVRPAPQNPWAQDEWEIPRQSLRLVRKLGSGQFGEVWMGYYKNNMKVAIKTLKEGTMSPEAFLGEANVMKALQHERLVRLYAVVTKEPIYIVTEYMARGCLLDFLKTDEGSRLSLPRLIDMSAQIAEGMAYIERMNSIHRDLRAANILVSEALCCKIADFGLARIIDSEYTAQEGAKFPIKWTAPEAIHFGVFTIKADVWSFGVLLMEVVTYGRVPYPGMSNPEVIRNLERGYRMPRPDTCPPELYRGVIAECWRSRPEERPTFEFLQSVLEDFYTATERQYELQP
Sequence of MST4 (human) (Q9P289 whole entry, looked up): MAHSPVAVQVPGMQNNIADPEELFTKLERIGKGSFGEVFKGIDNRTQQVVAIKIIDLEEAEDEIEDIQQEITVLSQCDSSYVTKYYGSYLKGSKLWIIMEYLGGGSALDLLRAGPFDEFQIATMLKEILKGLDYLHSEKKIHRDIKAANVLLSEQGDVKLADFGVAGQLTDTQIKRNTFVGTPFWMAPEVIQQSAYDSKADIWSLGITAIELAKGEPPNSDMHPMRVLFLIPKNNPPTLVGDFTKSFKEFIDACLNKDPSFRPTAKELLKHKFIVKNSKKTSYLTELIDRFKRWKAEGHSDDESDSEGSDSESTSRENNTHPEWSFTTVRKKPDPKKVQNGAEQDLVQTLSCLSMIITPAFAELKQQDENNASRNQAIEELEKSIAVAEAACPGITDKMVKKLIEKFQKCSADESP
Sequence of PNCK (human) (Q6P2M8 whole entry, looked up): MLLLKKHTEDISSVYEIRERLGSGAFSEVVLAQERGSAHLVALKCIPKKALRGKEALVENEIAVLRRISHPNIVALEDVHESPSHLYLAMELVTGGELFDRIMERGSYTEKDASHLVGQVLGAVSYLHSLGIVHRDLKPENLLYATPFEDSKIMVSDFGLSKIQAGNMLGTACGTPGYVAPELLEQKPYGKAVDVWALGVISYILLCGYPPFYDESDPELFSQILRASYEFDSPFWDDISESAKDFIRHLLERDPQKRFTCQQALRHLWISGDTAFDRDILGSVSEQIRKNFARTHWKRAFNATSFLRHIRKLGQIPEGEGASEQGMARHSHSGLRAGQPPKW
Sequence of RPS6KB2 (human) (Q9UBS0 whole entry, looked up): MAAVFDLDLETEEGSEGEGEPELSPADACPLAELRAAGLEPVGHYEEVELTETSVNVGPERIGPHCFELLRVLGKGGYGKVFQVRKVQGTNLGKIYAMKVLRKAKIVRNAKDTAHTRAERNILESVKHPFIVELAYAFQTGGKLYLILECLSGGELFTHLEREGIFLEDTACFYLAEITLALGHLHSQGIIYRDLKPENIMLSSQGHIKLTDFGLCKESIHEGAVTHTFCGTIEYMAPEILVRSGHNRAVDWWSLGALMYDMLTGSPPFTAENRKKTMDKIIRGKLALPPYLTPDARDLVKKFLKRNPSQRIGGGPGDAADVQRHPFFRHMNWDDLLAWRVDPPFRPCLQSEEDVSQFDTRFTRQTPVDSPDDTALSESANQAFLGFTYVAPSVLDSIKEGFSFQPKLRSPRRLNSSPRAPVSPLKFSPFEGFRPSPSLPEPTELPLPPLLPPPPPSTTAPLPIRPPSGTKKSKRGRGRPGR

O=C(c1ccccc1)c1ccc(N2CCOCC2)cc1O
residual activity (MAPK11 (human)): 99.3%
residual activity (ABL2 (human)): 105%
residual activity (MAP3K14 (human)): 75.1%
residual activity (MST4 (human)): 101%
residual activity (EPHA2 (human)): 104%
residual activity (PDGFRB (human)): 96.5%
residual activity (LTK (human)): 107%
residual activity (AURKB (human)): 95.5%
residual activity (FYN (human)): 106%
residual activity (PAK1 (human)): 91.8%
residual activity (FGFR3 (human)): 104%
residual activity (PAK3 (human)): 99.4%
residual activity (FLT3 (human)): 90.6%
residual activity (CAMK4 (human)): 94.7%
residual activity (IRAK1 (human)): 103%
residual activity (DAPK3 (human)): 100%
residual activity (EPHA4 (human)): 103%
residual activity (CAMK2G (human)): 94%
residual activity (MLTK (human)): 95%
residual activity (BMX (human)): 90.4%
residual activity (PNCK (human)): 101%
residual activity (EPHB2 (human)): 94.9%
residual activity (RPS6KB2 (human)): 100%
residual activity (AURKA (human)): 108%
residual activity (PRKX (human)): 109%
residual activity (MINK1 (human)): 91.1%
residual activity (EPHA3 (human)): 105%
residual activity (MARK2 (human)): 107%
residual activity (BLK (human)): 102%
residual activity (BRSK1 (human)): 103%
residual activity (DSTYK (human)): 86.2%
residual activity (CDK1 CCNA2 (human)): 103%
residual activity (MAP2K1 (human)): 98.1%
residual activity (ROCK2 (human)): 96%
residual activity (DYRK3 (human)): 98.9%
residual activity (PRKG1 (human)): 86.8% and 96.4%
residual activity (PDGFRA (human)): 91.9%
residual activity (TXK (human)): 98.5%
residual activity (PRKCE (human)): 92.3%
residual activity (GSG2 (human)): 98.5%
residual activity (CHEK2 (human)): 106%

N/C(=N\N=C/c1ccc(-c2cccc([N+](=O)[O-])c2)o1)N[N+](=O)[O-]
residual activity (MAPK11 (human)): 96.6%
residual activity (TEK (human)): 99.6%
residual activity (ABL2 (human)): 95.7%
residual activity (MAP3K14 (human)): 77.9%
residual activity (MST4 (human)): 99.5%
residual activity (PDGFRB (human)): 129%
residual activity (LTK (human)): 102%
residual activity (AURKB (human)): 99.1%
residual activity (FYN (human)): 101%
residual activity (PAK1 (human)): 91.4%
residual activity (FGFR3 (human)): 99.6%
residual activity (PAK3 (human)): 95.1%
residual activity (FLT3 (human)): 99.3%
residual activity (CAMK4 (human)): 95.2%
residual activity (DAPK3 (human)): 103%
residual activity (CAMK2G (human)): 82.1%
residual activity (MLTK (human)): 98%
residual activity (BMX (human)): 90.1%
residual activity (PNCK (human)): 100%
residual activity (EPHB2 (human)): 84.6%
residual activity (RPS6KB2 (human)): 102%
residual activity (PRKX (human)): 97.8%
residual activity (MINK1 (human)): 84.1%
residual activity (EPHA3 (human)): 99.3%
residual activity (MARK2 (human)): 108%
residual activity (BLK (human)): 102%
residual activity (BRSK1 (human)): 97.2%
residual activity (DSTYK (human)): 95.4%
residual activity (CDK1 CCNA2 (human)): 100%
residual activity (MAP2K1 (human)): 105%
residual activity (ROCK2 (human)): 86.3%
residual activity (DYRK3 (human)): 102%
residual activity (PRKG1 (human)): 87.4% and 95.8%
residual activity (PDGFRA (human)): 93.2%
residual activity (TXK (human)): 98.3%
residual activity (PRKCE (human)): 90.5%
residual activity (GSG2 (human)): 89.1%
residual activity (CHEK2 (human)): 104%
